Data as given in ChEMBL document CHEMBL6177994 (J Med Chem, 2025).
Calls of active or inactive are those of the source. The calls are words filed in the database; no cut-off is given here.

Experiments:
[1] = test system: Protein cereblon/GTPase KRas (Homo sapiens), P01116+Q96SW2 [G12D]; assay: PROTAC activity at CRBN/KRAS G12D mutant in human ASPC1 cells assessed as induction of KRAS G12D mutant degradation at 5 nM measured after 24 hrs by immunoblot analysis relative to control; assay type: cell-based
[2] = test system: Protein cereblon/GTPase KRas (Homo sapiens), P01116+Q96SW2 [G12D]; assay: PROTAC activity at CRBN/KRAS G12D mutant in human ASPC1 cells assessed as induction of KRAS G12D mutant degradation 0.01 to 100 nM measured after 24 hrs by immunoblot analysis relative to control; assay type: cell-based; details: dose 0.01-100 nM
[3] = test system: GP2d; assay: PROTAC activity at CRBN/KRAS G12D mutant in human GP2d cells assessed as induction of KRAS G12D mutant degradation 0.01 to 100 nM measured after 24 hrs by immunoblot analysis; assay type: cell-based; details: dose 0.01-100 nM
[4] = Inhibition of ERK phosphorylation in human AGS cells harbouring KRAS G12D mutant measured after 24 hrs; assay type: cell-based
[5] = biological target: Protein cereblon/GTPase KRas (Homo sapiens) (UniProt P01116+Q96SW2); assay: PROTAC activity at CRBN/KRAS in human MKN-1 cells assessed as induction of KRAS degradation 1 nM measured after 24 hrs by immunoblot analysis; assay type: cell-based
[6] = biological target: Protein cereblon/Eukaryotic peptide chain release factor GTP-binding subunit ERF3A (Homo sapiens) (UniProt Q96SW2+P15170); assay: PROTAC activity at CRBN/GSPT1 in human ASPC1 cells assessed as induction of GSPT1 degradation at 10 to 1000 nM measured after 24 hrs by immunoblot analysis; assay type: cell-based; details: dose 10-1000 nM
[7] = test system: ASPC1; assay: Antiproliferative activity against human ASPC1 cells harbouring KRAS G12D mutant assessed as inhibition of cell growth measured after 72 hrs by Cell titer glo method; assay type: functional, cell-based; details: ASPC1, 72 h
[8] = Antiproliferative activity against human GP2d cells harbouring KRAS G12D mutant assessed as inhibition of cell growth measured after 72 hrs by Cell titer glo method; assay type: functional, cell-based
[9] = biological target: GTPase KRas (Homo sapiens, UniProt P01116, G12D); assay: Binding affinity to 6 His-tagged GDP-loaded human KRAS G12D mutant assessed as GDP-GTP exchange preincubated for 30 mins followed by GTP addition for 30 mins by HTRF method
[10] = test system: Protein cereblon/GTPase KRas (Homo sapiens), P01116+Q96SW2 [G12D]; assay: PROTAC activity at CRBN/KRAS G12D mutant in human ASPC1 cells assessed as induction of KRAS G12D mutant degradation at 5 nM preincubated with CRBN ligand followed by compound addition and measured after 24 hrs by Western blot analysis; assay type: cell-based
[11] = test system: Protein cereblon/GTPase KRas (Homo sapiens), P01116+Q96SW2 [G12D]; assay: PROTAC activity at CRBN/KRAS G12D mutant in human ASPC1 cells assessed as induction of KRAS G12D mutant degradation at 5 nM preincubated with MG132 followed by compound addition and measured after 24 hrs by Western blot analysis; assay type: cell-based
[12] = Antitumor activity against human PK-59 cells xenografted in female Balb/c nude mouse model assessed as tumor growth inhibition at 0.1 mg/kg, iv QW measured after 28 days relative to control; assay type: functional; details: PK-59, 672 h, time 28 day, read-out: TGI
[13] = Toxicity in female Balb/c nude mouse xenografted with human GP2d cells assessed as change in body weight at 1 to 10 mg/kg, iv Q2W measured after 28 days; assay type: organism-based; details: in vivo, 672 h, dose 1-10 mg/kg, time 28 day
[14] = test system: Protein cereblon/GTPase KRas (Homo sapiens), P01116+Q96SW2 [G12D]; assay: In vivo PROTAC activity at CRBN/KRAS G12D mutant in male Balb/c nude mouse xenografted with human PK-59 cells assessed as reduction in DUSP4 level in tumor at 10 mg/kg, iv measured after 6 hrs relative to control; assay type: functional, organism-based; parameters: scale not given: the % may be the effect or the level left
[15] = test system: Protein cereblon/GTPase KRas (Homo sapiens), P01116+Q96SW2 [G12D]; assay: In vivo PROTAC activity at CRBN/KRAS G12D mutant in male Balb/c nude mouse xenografted with human PK-59 cells assessed as increase in cleaved caspase 7 level at 10 mg/kg, iv measured up to 168 hrs; assay type: functional, organism-based
[16] = Drug concentration in male Balb/c nude mouse plasma xenografted with human GP2d cells at 10 mg/kg, iv administered as single dose measured after 6 hrs by LC-MS/MS analysis; assay type: ADME, organism-based
[17] = Drug concentration in male Balb/c nude mouse plasma xenografted with human GP2d cells at 10 mg/kg, iv administered as single dose measured after 168 hrs by LC-MS/MS analysis; assay type: ADME, organism-based
[18] = test system: Protein cereblon/GTPase KRas (Homo sapiens), P01116+Q96SW2 [G12D]; assay: In vivo PROTAC activity at CRBN/KRAS G12D mutant in male Balb/c nude mouse xenografted with human GP2d cells assessed as inhibition of ERK phosphorylation level at 10 mg/kg, iv measured after 7 days; assay type: functional, organism-based; details: time 7.0 day
[19] = test system: Protein cereblon/GTPase KRas (Homo sapiens), P01116+Q96SW2 [G12D]; assay: In vivo PROTAC activity at CRBN/KRAS G12D mutant in male Balb/c nude mouse xenografted with human GP2d cells assessed as increase in cleaved caspase 7 level at 10 mg/kg, iv measured after 7 days; assay type: functional, organism-based; details: time 7.0 day
[20] = Drug concentration in male Balb/c nude mouse tumor xenografted with human PK-59 cells at 10 mg/kg, iv administered as single dose measured after 6 hrs by LC-MS/MS analysis; assay type: ADME, organism-based, Neoplasm; details: read-out: Ct
[21] = Stability in dog plasma assessed as half life at 1 uM measured up to 120 mins by LC-MS/MS analysis; assay type: ADME, cell-free, Canis lupus familiaris
[22] = Stability in human plasma assessed as half life at 1 uM measured up to 120 mins by LC-MS/MS analysis; assay type: ADME, cell-free
[23] = Metabolic stability in dog liver microsomes assessed as intrinsic clearance at 1 uM preincubated for 3 mins with NADPH and measured up to 60 mins by LC-MS/MS analysis; assay type: ADME, Canis lupus familiaris, Microsome; details: time < 63 min, read-out: CLH
[24] = Metabolic stability in monkey liver microsomes assessed as intrinsic clearance at 1 uM preincubated for 3 mins with NADPH and measured up to 60 mins by LC-MS/MS analysis; assay type: ADME, Macaca mulatta, Microsome; details: rhesus monkey, time < 63 min, read-out: CLH
[25] = Metabolic stability in human liver microsomes assessed as intrinsic clearance at 1 uM preincubated for 3 mins with NADPH and measured up to 60 mins by LC-MS/MS analysis; assay type: ADME, Microsome; details: time < 63 min, read-out: CLH
[26] = Stability in human hepatocyte assessed as intrinsic clearance at 100 uM measured up to 120 mins by LC-MS/MS analysis; assay type: ADME, cell-based; details: hepatocytes, read-out: CLH
[27] = Plasma protein binding in dog at 2 uM by LC-MS/MS analysis; assay type: ADME, cell-free, Canis lupus familiaris; details: read-out: PPB
[28] = Half life in male ICR mouse at 1 mg/kg, iv measured up to 24 hrs by LC-MS/MS analysis; assay type: ADME, organism-based; details: in vivo
[29] = Half life in male Sprague-Dawley rat at 1 mg/kg, iv measured up to 24 hrs by LC-MS/MS analysis; assay type: ADME, organism-based; details: in vivo

Sequence of Protein cereblon/GTPase KRas (Homo sapiens), P01116+Q96SW2 [G12D] (P01116 whole entry G12D): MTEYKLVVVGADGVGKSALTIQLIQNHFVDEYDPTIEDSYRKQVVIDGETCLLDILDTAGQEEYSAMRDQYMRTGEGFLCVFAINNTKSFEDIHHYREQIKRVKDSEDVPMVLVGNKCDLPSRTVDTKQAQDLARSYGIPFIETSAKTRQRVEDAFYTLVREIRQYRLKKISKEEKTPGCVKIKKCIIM
Sequence of Protein cereblon/GTPase KRas (Homo sapiens), P01116+Q96SW2 [G12D] (Q96SW2 whole entry partner): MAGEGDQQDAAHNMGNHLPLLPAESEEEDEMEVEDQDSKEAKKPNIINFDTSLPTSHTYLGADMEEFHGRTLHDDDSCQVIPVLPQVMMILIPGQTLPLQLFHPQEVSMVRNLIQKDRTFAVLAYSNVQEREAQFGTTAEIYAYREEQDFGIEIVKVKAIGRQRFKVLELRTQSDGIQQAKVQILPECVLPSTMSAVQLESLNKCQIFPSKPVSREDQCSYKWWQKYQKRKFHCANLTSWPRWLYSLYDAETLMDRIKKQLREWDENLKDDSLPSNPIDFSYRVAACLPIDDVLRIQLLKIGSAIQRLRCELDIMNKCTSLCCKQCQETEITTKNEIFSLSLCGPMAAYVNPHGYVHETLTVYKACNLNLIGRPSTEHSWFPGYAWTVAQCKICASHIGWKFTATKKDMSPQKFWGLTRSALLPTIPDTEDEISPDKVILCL
Sequence of Protein cereblon/GTPase KRas (Homo sapiens) (P01116 whole entry, looked up): as the sequence (P01116 whole entry G12D) above, with D12G counted along it
Sequence of Protein cereblon/GTPase KRas (Homo sapiens) (Q96SW2 whole entry, looked up): as the sequence (Q96SW2 whole entry partner) above
Sequence of GTPase KRas (P01116 whole entry G12D): as the sequence (P01116 whole entry G12D) above
Sequence of Protein cereblon/Eukaryotic peptide chain release factor GTP-binding subunit ERF3A (Homo sapiens) (P15170 whole entry, looked up): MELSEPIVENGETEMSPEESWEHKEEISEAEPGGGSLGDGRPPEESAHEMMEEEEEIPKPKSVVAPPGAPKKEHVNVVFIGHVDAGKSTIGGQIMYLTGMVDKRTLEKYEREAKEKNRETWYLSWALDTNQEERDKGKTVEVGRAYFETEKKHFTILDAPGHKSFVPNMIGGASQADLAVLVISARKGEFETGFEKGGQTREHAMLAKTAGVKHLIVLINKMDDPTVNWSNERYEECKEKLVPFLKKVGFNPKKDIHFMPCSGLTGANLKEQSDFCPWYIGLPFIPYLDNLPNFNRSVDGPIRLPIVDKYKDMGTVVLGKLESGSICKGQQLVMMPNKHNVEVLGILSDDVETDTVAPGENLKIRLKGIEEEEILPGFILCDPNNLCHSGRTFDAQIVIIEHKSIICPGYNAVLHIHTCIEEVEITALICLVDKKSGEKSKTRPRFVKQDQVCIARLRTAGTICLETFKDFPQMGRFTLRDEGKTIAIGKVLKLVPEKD
Sequence of Protein cereblon/Eukaryotic peptide chain release factor GTP-binding subunit ERF3A (Homo sapiens) (Q96SW2 whole entry, looked up): as the sequence (Q96SW2 whole entry partner) above

C#Cc1c(F)ccc2cc(O)cc(-c3ncc4c(N5CC6CCC(C5)N6)nc(OCC5(CN6CCC7(CC6)CC(N6CCC(c8cc9c(cc8F)c(N8CCC(=O)NC8=O)nn9C)CC6)C7)CC5)nc4c3F)c12
Activity [1]: 92%
Emax [2]: 89%
Activity [3]: Active
IC50 [4]: 10.6 nM
Activity [5]: inactive
Activity [6]: inactive
IC50 [7]: 4.19 nM
IC50 [8]: 0.19 nM
IC50 [9]: 6.34 nM
Activity [10]: Active
Activity [11]: inactive
inhibition in vivo at 0.1 mg/kg [12]: 81.4%
Activity [13]: Non-toxic
Activity [14]: 11%
Activity [15]: Active
concentration at 6 h [16]: 113 ng/mL
concentration at 168 h [17]: 4.1 ng/mL
Activity [18]: Active
Activity [19]: Active
concentration at 6 h [20]: 1040 ng/g
half-life at 1 µM [21]: 433 min
half-life at 1 µM [22]: 6.88 days
CLint scaled at 1 µM [23]: 4.6 mL/min/kg
CLint scaled at 1 µM [24]: 4.3 mL/min/kg
CLint scaled at 1 µM [25]: 8.1 mL/min/kg
CLint scaled at 100 µM [26]: 5.8 mL/min/kg
fraction unbound at 2 µM [27]: < 0.05
half-life [28]: 529 min
half-life [29]: 578 min
